From PMC7520419 (The AAPS Journal, 2020)
Converted amounts (≈) assume the structure as drawn. Where two headings read alike, the source gives them in different places.

Legend:
[1] = pKa
[2] = cited from earlier work; for Observed AUC(0-inf) Fasted / Observed Cmax Fasted / Observed AUC(0-inf) Fed / Observed Cmax Fed / Observed AUC Ratios (Fed/Fasted) / Observed Cmax Ratios (Fed/Fasted): ref published clinical data (Table I)
[3] = system: Caco-2; conditions: not generated within this working group; ref Table I; cited from earlier work
[4] = Solubility measurement in biorelevant media (FaSSIF-V2, FeSSIF-V2); conditions: 37 °C, thermodynamic from solid
Description: (§1) The solubility of the drug substances was determined in biorelevant media as well as in aqueous buffers at different pH. Fasted state simulated gastric fluid (FaSSGF) ([37]), fasted state simulated intestinal fluid (FaSSIF-V2) ([38]), and fed state simulated intestinal fluid (FeSSIF-V2) ([39]) were prepared according to the instructions provided by Biorelevant (Biorelevant.com Ltd., London, UK). […] For neutral compounds, solubility was determined at pH 2, pH 4, and pH 7.
(§2) For freely soluble compounds, the extent of solubilization was measured only up to 10 mg/mL.

[5] = PBPK food effect modeling (Simcyp V17.1 and/or GastroPlus V9.5; Model 1 / Model 2); set-up: species or system human
[6] = set-up: method as in Table I reference column; conditions: not generated within this working group; ref Table I; cited from earlier work
[7] = Effective human jejunum permeability (Peff,man) used in the PBPK model; assay type: in vitro ADME; conditions: human, 1 h
Description: Permeation rates of the compounds, including reference compounds, were measured in the apical-to-basolateral (AB) direction. The donor and receiver wells were sampled immediately after application of the compound to the donor well to determine baseline concentrations, and again after 1 h. Quantification was done using high-performance liquid chromatography combined with mass spectrometry (HPLC-MS/MS) analysis and monolayer integrity was verified by analyzing the receiver samples for LuY fluorescence in a plate reader.

[8] = not generated within this working group; ref Table I; cited from earlier work
[9] = Solubility measurement in aqueous buffer solutions; conditions: pH 6.5, aqueous buffer, thermodynamic from solid
Description: as §1, §2

[10] = clinically observed PK change (AUC, Cmax) fed vs fasted, compiled by literature search
[11] = FaSSIF-V2 (fasted state simulated intestinal fluid), FaSSIF solubility
[12] = FeSSIF-V2 (fed state simulated intestinal fluid), FeSSIF solubility
[13] = direction, AUC and/or Cmax ratio fed to fasted, BE criteria 0.8–1.25, ref drug label

## CN/C(=N/CCSCc1nc[nH]c1C)NC#N [Cimetidine]
[1]; pKa (b, basic)
  pKa: 6.9
[2]; Model 1
  Observed AUC(0-inf) Fasted: 4880 ng·h/mL
  Observed Cmax Fasted: 900 ng/mL
  Observed AUC(0-inf) Fed: 4150 ng·h/mL
  Observed Cmax Fed: 810 ng/mL
  Observed AUC Ratios (Fed/Fasted): 0.85
  Observed Cmax Ratios (Fed/Fasted): 0.90
[2]; Model 2
  Observed AUC(0-inf) Fasted: 5350 ng·h/mL
  Observed Cmax Fasted: 890 ng/mL
  Observed AUC(0-inf) Fed: 4580 ng·h/mL
  Observed Cmax Fed: 800 ng/mL
  Observed AUC Ratios (Fed/Fasted): 0.86
  Observed Cmax Ratios (Fed/Fasted): 0.90
[2]; [10]
  Food Effect: None (none if no significant change in AUC and Cmax with food)
[3]
  Apparent permeability (Caco-2): 5.4 (Caco-2)^^ × 10^−6 cm/s
[4]; [11]
  solubility: 22000 µg/mL (≈ 87.2 mM)
[4]; [12]
  solubility: 21500 µg/mL (≈ 85.2 mM)
[5]; Model 1
  AUC Ratio of Ratios (Sim'd / Obs'd): 1.14
  Cmax Ratio of Ratios (Sim'd / Obs'd): 0.87
[5]; Model 2
  AUC Ratio of Ratios (Sim'd / Obs'd): 1.19
  Cmax Ratio of Ratios (Sim'd / Obs'd): 1.10

## Cc1ccc(-c2ncc(Cl)cc2-c2ccc(S(C)(=O)=O)cc2)cn1 [Etoricoxib]
[1]; pKa (b, basic)
  pKa: 4.5
[6]
  FaSSIF solubility: 67^^ μg/ml
  FeSSIF solubility: 95^^ μg/ml
[2]; Model 1
  Observed AUC(0-inf) Fasted: 44400 ng·h/mL
  Observed Cmax Fasted: 2890 ng/mL
  Observed AUC(0-inf) Fed: 42200 ng·h/mL
  Observed Cmax Fed: 1890 ng/mL
  Observed AUC Ratios (Fed/Fasted): 0.95
  Observed Cmax Ratios (Fed/Fasted): 0.65
[2]; Model 2
  Observed AUC(0-inf) Fasted: 44400 ng·h/mL
  Observed Cmax Fasted: 2890 ng/mL
  Observed AUC(0-inf) Fed: 42200 ng·h/mL
  Observed Cmax Fed: 1890 ng/mL
  Observed AUC Ratios (Fed/Fasted): 0.95
  Observed Cmax Ratios (Fed/Fasted): 0.65
[2]; [10]
  Food Effect: Negative (negative if ratio fasted > fed)
[2]; [13]
  Food Effect: Negative (negative if ratio fasted > fed)
[2]; ref drug label
  food effect (FE) direction: negative FE
[7]
  Effective permeability: 480 ×10⁻⁶ cm/s
[3]
  Apparent permeability (Caco-2): 52.3 (Caco-2)^^ × 10^−6 cm/s
[8]
  Solubility at pH 6.5: 67^^ μg/ml
[5]; Model 1
  AUC Ratio of Ratios (Sim'd / Obs'd): 1.05
  Cmax Ratio of Ratios (Sim'd / Obs'd): 0.97
[5]; Model 2
  AUC Ratio of Ratios (Sim'd / Obs'd): 1.06
  Cmax Ratio of Ratios (Sim'd / Obs'd): 1.25

## COCCc1ccc(OCC(O)CNC(C)C)cc1 (stereo not drawn) [Metoprolol]
[2]; Model 1
  Observed AUC(0-inf) Fasted: 302 ng·h/mL
  Observed Cmax Fasted: 111 ng/mL
  Observed AUC(0-inf) Fed: 426 ng·h/mL
  Observed Cmax Fed: 148 ng/mL
[9]
  solubility: 17100 µg/mL (≈ 64 mM)

## CCOC(=O)C1=C[C@@H](OC(CC)CC)[C@H](NC(C)=O)[C@@H](N)C1 [Oseltamivir]
[1]; pKa (b, basic)
  pKa: 7.7
[2]; Model 1
  Observed AUC(0-inf) Fasted: 6220 ng·h/mL
  Observed Cmax Fasted: 551 ng/mL
  Observed AUC(0-inf) Fed: 6070 ng·h/mL
  Observed Cmax Fed: 441 ng/mL
  Observed AUC Ratios (Fed/Fasted): 0.98
  Observed Cmax Ratios (Fed/Fasted): 0.80
[2]; [13]
  Food Effect: None (none if no significant change in AUC and Cmax with food)
[8]
  Solubility at pH 6.5: 25,000^^ μg/ml
[5]; Model 1
  AUC Ratio of Ratios (Sim'd / Obs'd): 1.09
  Cmax Ratio of Ratios (Sim'd / Obs'd): 1.34

## Cc1[nH]c2ccccc2c1CCNCc1ccc(/C=C/C(=O)NO)cc1 [Panobinostat]
[1]; pKa (a, acidic)
  pKa: 8.35
[1]; pKa (b, basic)
  pKa: 9
[6]
  FaSSIF solubility: 140^^ μg/ml
  FeSSIF solubility: 230^^ μg/ml
[2]; Model 1
  Observed AUC(0-inf) Fasted: 148 ng·h/mL
  Observed Cmax Fasted: 17.5 ng/mL
  Observed AUC(0-inf) Fed: 124 ng·h/mL
  Observed Cmax Fed: 9.8 ng/mL
  Observed AUC Ratios (Fed/Fasted): 0.84
  Observed Cmax Ratios (Fed/Fasted): 0.56
[2]; Model 2
  Observed AUC(0-inf) Fasted: 128 ng·h/mL
  Observed Cmax Fasted: 17.5 ng/mL
  Observed AUC(0-inf) Fed: 108 ng·h/mL
  Observed Cmax Fed: 9.8 ng/mL
  Observed AUC Ratios (Fed/Fasted): 0.85
  Observed Cmax Ratios (Fed/Fasted): 0.56
[2]; [10]
  Food Effect: None (none if no significant change in AUC and Cmax with food)
[2]; [13]
  Food Effect: None (none if no significant change in AUC and Cmax with food)
[7]
  Effective permeability: 230 ×10⁻⁶ cm/s
[3]
  Apparent permeability (Caco-2): 11 (Caco-2)^^ × 10^−6 cm/s
[8]
  Solubility at pH 6.5: 261^^ μg/ml
[5]; Model 1
  AUC Ratio of Ratios (Sim'd / Obs'd): 1.25
  Cmax Ratio of Ratios (Sim'd / Obs'd): 0.61
[5]; Model 2
  AUC Ratio of Ratios (Sim'd / Obs'd): 1.25
  Cmax Ratio of Ratios (Sim'd / Obs'd): 1.42

## O=C1NC(=O)C(c2ccccc2)(c2ccccc2)N1 [Phenytoin]
[1]; pKa (a, acidic)
  pKa: 8.06
[6]
  FaSSIF solubility: 39.6^^ μg/ml
  FeSSIF solubility: 49.5^^ μg/ml
[2]; Model 1
  Observed AUC(0-inf) Fasted: 104000 ng·h/mL
  Observed Cmax Fasted: 4920 ng/mL
  Observed AUC(0-inf) Fed: 127000 ng·h/mL
  Observed Cmax Fed: 6950 ng/mL
  Observed AUC Ratios (Fed/Fasted): 1.22
  Observed Cmax Ratios (Fed/Fasted): 1.41
[2]; Model 2
  Observed AUC(0-inf) Fasted: 104000 ng·h/mL
  Observed Cmax Fasted: 4920 ng/mL
  Observed AUC(0-inf) Fed: 127000 ng·h/mL
  Observed Cmax Fed: 6950 ng/mL
  Observed AUC Ratios (Fed/Fasted): 1.22
  Observed Cmax Ratios (Fed/Fasted): 1.41
[2]; [10]
  Food Effect: Positive (positive if the ratio of fed > fasted)
[2]; [13]
  Food Effect: Positive (positive if the ratio of fed > fasted)
[2]; ref drug label
  food effect (FE) direction: positive FE
[7]
  Effective permeability: 400 ×10⁻⁶ cm/s
[8]
  Solubility at pH 6.5: 31^^ μg/ml
[5]; Model 1
  AUC Ratio of Ratios (Sim'd / Obs'd): 0.95
  Cmax Ratio of Ratios (Sim'd / Obs'd): 0.92
[5]; Model 2
  AUC Ratio of Ratios (Sim'd / Obs'd): 0.99
  Cmax Ratio of Ratios (Sim'd / Obs'd): 1.00

## CC(C)(CO)c1cc2cc(NC(=O)C3(c4ccc5c(c4)OC(F)(F)O5)CC3)c(F)cc2n1C[C@@H](O)CO [Tezacaftor]
[1]
  pKa (ionisation state in words): Neutral
[6]
  FaSSIF solubility: 119^^ μg/ml
  FeSSIF solubility: 4783^^ μg/ml
[2]; Model 1
  Observed AUC(0-inf) Fasted: 3970 ng·h/mL
  Observed Cmax Fasted: 2340 ng/mL
  Observed AUC(0-inf) Fed: 4360 ng·h/mL
  Observed Cmax Fed: 1890 ng/mL
  Observed AUC Ratios (Fed/Fasted): 1.10
  Observed Cmax Ratios (Fed/Fasted): 0.81
[2]; [10]
  Food Effect: None (none if no significant change in AUC and Cmax with food)
[2]; [13]
  Food Effect: None (none if no significant change in AUC and Cmax with food)
[3]
  Apparent permeability (Caco-2): 4.2 (Caco-2)^^ × 10^−6 cm/s
[8]
  Solubility at pH 6.5: 110^^ μg/ml
[5]; Model 1
  AUC Ratio of Ratios (Sim'd / Obs'd): 0.92
  Cmax Ratio of Ratios (Sim'd / Obs'd): 1.23

## CC1(C)CCC(CN2CCN(c3ccc(C(=O)NS(=O)(=O)c4ccc(NCC5CCOCC5)c([N+](=O)[O-])c4)c(Oc4cnc5[nH]ccc5c4)c3)CC2)=C(c2ccc(Cl)cc2)C1 [Venetoclax]
[1]; pKa (a, acidic)
  pKa: 3.4
[1]; pKa (b, basic)
  pKa: 10.3
[2]; Model 2
  Observed AUC(0-inf) Fasted: 2080 ng·h/mL
  Observed Cmax Fasted: 150 ng/mL
  Observed AUC(0-inf) Fed: 7100 ng·h/mL
  Observed Cmax Fed: 500 ng/mL
  Observed AUC Ratios (Fed/Fasted): 3.41
  Observed Cmax Ratios (Fed/Fasted): 3.33
[2]; [10]
  Food Effect: Positive (positive if the ratio of fed > fasted)
[2]; [13]
  Food Effect: Positive (positive if the ratio of fed > fasted)
[9]
  solubility: 6 µg/mL (≈ 0.00691 mM)
[4]; [11]
  solubility: 0.0337 µg/mL (≈ 3.88e-05 mM)
[4]; [12]
  solubility: 26.4 µg/mL (≈ 0.0304 mM)
[5]; Model 2
  AUC Ratio of Ratios (Sim'd / Obs'd): 0.79
  Cmax Ratio of Ratios (Sim'd / Obs'd): 0.75
